Holding throughout (assay): growth of human tumour cells (NCI), 48 h
Assay [1] concerns M14 melanoma.
The subject of assay [2] is LOX IMVI melanoma.
The subject of assay [3] is 786-0 renal.
Assay [4] deals with SK-MEL-28 melanoma.
Assay [5] deals with UACC-257 melanoma.
Assay [6] has as its system CAKI-1 renal.
Assay [7] concerns NCI-H522 lung.
Assay [8] concerns SF-268 CNS.

Each structure is given as a SMILES string.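 1) Cells in 96-well plates. 2) Compound, 48 h, 5 concentrations. 3) Linear interpolation between surrounding doses. 4) Unreached endpoint = highest concentration. GI50 marks 50% less growth. The concentration for full growth arrest is given as TGI.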 Where a SMILES comes first, the peptide text is derived from it. [ ]: non-standard residue; d: D form. Phe(4-Cl) = N[CH](Cc1ccc(Cl)cc1)C(=O)O

Consider `COc1c2c(cc3nc4ccccc4nc13)CCC(C(C)(C)O)C2` (stereo unspecified), for which the TGI in assay [1], in assay [2], in assay [3], in assay [4], in assay [5] and in assay [6] was above 100 µM each time. For the same compound, the TGI in assay [7] and in assay [8] was above 100 µM each time.
As to `COc1cc(OC(=O)c2c(O)cc(O)c(O)c2C)cc(C)c1C(=O)Oc1cc(C)c(C(=O)O)c(O)c1`, the TGI in assay [1], in assay [2], in assay [3], in assay [4], in assay [5] and in assay [6] was above 100 µM in each case. For the same compound, the TGI in assay [7] and in assay [8] was above 100 µM in each case.
Regarding `Nc1ccc(/C=C/c2ccnc3ccccc23)cc1`, the TGI was 51.5 µM in assay [1]; 57.6 µM in assay [3]; above 100 µM in assay [4]; 57.8 µM in assay [5]; 63.9 µM in assay [6]; 30.7 µM in assay [7]. This compound also showed a TGI in assay [8] of 47.5 µM.
For the compound `COc1ccc2c(c1)C=C([N+](=O)[O-])C(C1OC(C)(C)OC1C1COC(C)(C)O1)O2` (stereo unspecified), the TGI was determined as 6.15 µM in assay [1]; 2.92 µM in assay [2]; 26.5 µM in assay [3]; 3.83 µM in assay [4]; 6.16 µM in assay [5]; 13.9 µM in assay [6]. Further, the figures for the TGI in assay [7] and in assay [8] were 2.29 µM and 13.5 µM, respectively.
Turning to `CC(C)N(C(=O)C12CC3CC(CC(C3)C1)C2)C(C)C`, the TGI in assay [1], in assay [2], in assay [3], in assay [4], in assay [5] and in assay [6] was above 50 µM throughout. Moreover, the TGI in assay [7] and in assay [8] was above 50 µM each time.
Consider `CC(=O)[CH-]C(=O)c1ccccc1.CC(=O)[CH-]C(=O)c1ccccc1.O=C([O-])c1ccc([O-])cc1.O=C([O-])c1ccc([O-])cc1.[Ti+4]`, for which the GI50 in assay [1] is 40.2 µM; in assay [2], 28.9 µM; in assay [3], 54.4 µM; in assay [4] it was 41.6 µM; in assay [6], 35.6 µM; in assay [7], 22.8 µM. In assay [8], the GI50 is 25 µM. Further, the TGI is above 100 µM in assay [1]; above 100 µM in assay [2]; above 100 µM in assay [3]; above 100 µM in assay [4]; above 100 µM in assay [6]; 70.9 µM in assay [7]. Further, in assay [8], the TGI is above 100 µM.
For the compound `C=CCCCCCCCCC(=O)NS(=O)(=O)c1ccccc1`, the TGI in assay [1], in assay [2], in assay [3], in assay [4], in assay [5] and in assay [6] was above 100 µM in each case. For the same compound, the TGI in assay [7] and in assay [8] was above 100 µM in each case.
As to `N#Cc1nc(C2OC(COC(=O)c3ccccc3)C(OC(=O)c3ccccc3)C2OC(=O)c2ccccc2)oc1N` (stereo unspecified), the TGI in assay [1], in assay [2], in assay [3], in assay [4], in assay [5] and in assay [6] was above 100 µM each time. For the same compound, the TGI in assay [7] is 65.2 µM; in assay [8] it was above 100 µM.
`COC(=O)c1cc(Br)c(Br)n1C`: the TGI in assay [1], in assay [2], in assay [3], in assay [4], in assay [5] and in assay [6] was above 100 µM each time. Further, the TGI in assay [7] and in assay [8] was above 100 µM throughout.
With `N.N.N.N.N.O=C([O-])c1nn[n-]n1.[Cl-].[Co+3]`, the GI50 in assay [1], in assay [2], in assay [3], in assay [4], in assay [5] and in assay [6] was above 100 µM throughout. For the same compound, the GI50 in assay [8] was above 100 µM. Moreover, the TGI in assay [1], in assay [2], in assay [3], in assay [4], in assay [5] and in assay [6] was above 100 µM each time. For the same compound, the TGI in assay [8] is above 100 µM.
For `CC1=C(C)CC2(CCCCC2=O)S(=O)C1` (stereo unspecified), the TGI in assay [1], in assay [2], in assay [3], in assay [4], in assay [5] and in assay [8] was above 100 µM throughout.
`Cc1ccc2nc3c(C(=O)NCCN(C)C)cccc3nc2c1`: the TGI in assay [1] was above 33.7 µM; in assay [2] it was 5.19 µM; in assay [3] it was above 77.2 µM; in assay [4] it was 10.9 µM; in assay [5], 14.1 µM; in assay [6], above 31.6 µM. Further, the TGI in assay [7] is above 100 µM.
Turning to `Cc1ccc(N(C(=O)CC(=O)NN)C(=O)c2ccccc2Cl)cc1`, the TGI in assay [1], in assay [2], in assay [3], in assay [4], in assay [5] and in assay [6] was above 100 µM each time. For the same compound, the TGI in assay [7] and in assay [8] was above 100 µM in each case.
For the compound `Cc1ccc(S(=O)(=O)n2c(-c3ccccc3)c(-c3ccccc3)c3ccccc32)cc1`, the TGI in assay [1], in assay [2], in assay [3], in assay [4], in assay [5] and in assay [7] was above 100 µM throughout. The same compound displayed a TGI in assay [8] above 100 µM.
As to `CC1=C2C(=O)O[C@@H](c3ccoc3)[C@]2(C)CCC1`, the TGI in assay [1], in assay [2], in assay [3], in assay [4], in assay [5] and in assay [6] was above 100 µM each time. Moreover, the TGI in assay [7] and in assay [8] was above 100 µM each time.
For the compound `CC(C)(C)OC(=O)Cc1ccc2c(ccn2Cc2ccccc2)c1`, the TGI in assay [1], in assay [2], in assay [3], in assay [4], in assay [5] and in assay [6] was above 100 µM throughout. The TGI in assay [7] and in assay [8] was above 100 µM throughout.
Consider `CC(O)C(NC(=O)C(Cc1ccccc1)NC(=O)C(NC(=O)C(CCCCN)NC(=O)C(Cc1c[nH]c2ccccc12)NC(=O)C(Cc1ccc(O)cc1)NC(=O)C(Cc1ccc(Cl)cc1)NC(=O)C(N)Cc1ccccc1)C(C)O)C(N)=O` (stereo unspecified) (H-F[Phe(4-Cl)]YWKTFT-NH2; configuration not given here), for which the TGI turned out to be 47.1 µM in assay [1], 41.3 µM in assay [3], 41.8 µM in assay [4] and 39.5 µM in assay [6].
For `NC1=NN(c2ccccc2)C(=O)C1C(=O)CCC(=O)Nc1cccc(C(F)(F)F)c1` (stereo unspecified), the TGI in assay [1], in assay [2], in assay [3], in assay [4], in assay [5] and in assay [6] was above 100 µM throughout. Moreover, the TGI in assay [8] is above 100 µM.
As for `CCOC(=O)CN=c1nc(SC)sc2c(C(=O)OCC)nc(Sc3ccccc3)n12`, the TGI was above 100 µM in assay [1]; above 100 µM in assay [2]; above 100 µM in assay [3]; above 100 µM in assay [5]; above 100 µM in assay [6]; 74.3 µM in assay [7]. Also, in assay [8], the TGI was above 100 µM.
Turning to `CCOC1=NC(=O)CC(c2ccccc2)S1` (stereo unspecified), the TGI in assay [1], in assay [2], in assay [3], in assay [5], in assay [6] and in assay [8] was above 100 µM each time.
Take `Cc1cccc(NC(=O)C(=O)Cc2nc3ccccc3[nH]c2=O)c1C`: the TGI in assay [1], in assay [2], in assay [3], in assay [4], in assay [5] and in assay [6] was above 100 µM in each case. The TGI in assay [7] and in assay [8] was above 100 µM in each case.
For `O=C(O)CN(c1ccccc1)S(=O)(=O)c1ccccc1[N+](=O)[O-]`, the TGI in assay [1], in assay [2], in assay [3], in assay [4], in assay [5] and in assay [6] was above 100 µM throughout. Besides, the TGI in assay [7] and in assay [8] was above 100 µM each time.
Take `Cn1cc(C(=O)c2ccccc2)ccc1=O`: the TGI in assay [1], in assay [2], in assay [3], in assay [4], in assay [5] and in assay [6] was above 100 µM each time. In addition, the TGI in assay [7] and in assay [8] was above 100 µM each time.
On to `O=c1cccccc1NCCCNc1cccccc1=O`, for which the TGI in assay [1], in assay [2], in assay [3], in assay [5], in assay [6] and in assay [7] was above 100 µM each time. Moreover, the TGI in assay [8] was above 100 µM.
Regarding `CCOC(=O)NC(=O)c1cn(CCOCCOC(=O)NCCCCCCNC(=O)OCCOCCn2cc(C(=O)NC(=O)OCC)c(=O)[nH]c2=O)c(=O)[nH]c1=O`, the TGI in assay [1], in assay [2], in assay [3], in assay [4], in assay [5] and in assay [7] was above 100 µM in each case. Moreover, the TGI in assay [8] was above 100 µM.
In the case of `CCCCCCCCCCCCCC1CCC(CC)N1` (stereo unspecified), the TGI in assay [1] came out at 31.8 µM; in assay [2] it was 32 µM; in assay [3] it was 31.5 µM; in assay [4], 18.6 µM; in assay [5], 40.6 µM; in assay [6] it was 29.6 µM. Moreover, the TGI in assay [7] worked out at 32.6 µM; in assay [8], 22.4 µM.
Turning to `Cc1cc(C)nc(NS(=O)(=O)c2ccc(Nc3c4ccccc4nc4c(C(=O)Nc5ccc(S(=O)(=O)Nc6cc(C)on6)cc5)cccc34)cc2)n1`, the TGI in assay [1] amounted to 41.7 µM; in assay [2], 37.1 µM; in assay [3], 34.8 µM; in assay [4] it was 52.3 µM; in assay [5] it was 66.6 µM; in assay [6] it was 46.3 µM. Further, the TGI in assay [7] worked out at 29 µM; in assay [8], 58 µM.
On to `Cc1ccccc1N(CCC#N)C1=NN(C(=O)CC(=O)Nc2ccccc2)C(c2ccccc2)C1` (stereo unspecified), for which the TGI in assay [1], in assay [3], in assay [4], in assay [5], in assay [7] and in assay [8] was above 100 µM each time.
Consider `COC(=O)C1=NC(=S)NC(c2ccccc2)C1c1nc2ccccc2s1` (stereo unspecified), for which the TGI in assay [1], in assay [3], in assay [4], in assay [5], in assay [6] and in assay [8] was above 100 µM throughout.
As for `COc1ccc2c(c1)CCC1C3(CCCC21C)OCCO3` (stereo unspecified), the TGI in assay [1] is 36.3 µM; in assay [2], 30.4 µM; in assay [3] it was 38.1 µM; in assay [4], 35.3 µM; in assay [5] it was 62.1 µM; in assay [6], above 100 µM. Besides, the results for the TGI in assay [7] and in assay [8] were 37.4 µM and 19.9 µM, respectively.
On to `Cc1ccc(Nc2nc3c(s2)C(=O)c2ccccc2C3=O)c(C)c1`, for which the TGI in assay [1] is 28.9 µM; in assay [2], 35.4 µM; in assay [3], 32.5 µM; in assay [4] it was 31.1 µM; in assay [5], 22.8 µM; in assay [6], 29 µM. Also, the values for the TGI in assay [7] and in assay [8] were 4.66 µM and 24.1 µM, respectively.

These data come from PubChem BioAssay (NCI).
